Earlier results, collected in patent US20040180034A1, “Anthelmintic resinates and a method for their preparation” (priority 2003, published 2004).

- cats experiencing weakness, salivation, or nausea (after injection): approximately one cat in ten
- animals experiencing nausea (oral form): at least one out of twenty
SMILES: O=C(C1CCCCC1)N1CC(=O)N2CCc3ccccc3C2C1 (centres unmarked) [Praziquantel, 4H-Pyrazino[2,1-a]isoquinolin-4-one, 2-(cyclohexylcarbonyl)-1,2,3,6,7,11b-hexahydro-(9CI)]
